Results from patent EP0490598A1 (priority 1990, dated 1992).
≈ marks a conversion by molar mass, not a printed value. Where two headings read alike, the source gives them in different places.

Experiments:
P-388 cells = test: Antitumoral assay, P-388 cell growth (cell counting); assay type: cell-based, mouse; conditions: for IC50: Mus musculus
Method: (§1) Pateamine was diluted in MeOH/CH₂Cl₂ 1:1 at 100 ng/ml and it has been tested at different concentrations. The solvent was allowed to evaporate before the cells were seeded.
Four general anitumoural assays, employing the current screening protocols have been carried out using the following cells: P-388 (lymphoid neoplasm from DBA/2 mouse) A-549 (human lung carcinoma) HT-29 (human colon carcinoma) KB (human oral epidermoid carcinoma)
P-388 cells were seeded into 16 mm wells at 1 x 10⁴ per well in […] aliquots of MEM 10FCS containing the indicated concentration or drug. All determinations were carried out in duplicate. After three days of incubation cells were counted and the IC₅₀ was determined.

BHK cells = test: Cytotoxicity assay, BHK cell growth (cell counting); assay type: cell-based, hamster; conditions: Mesocricetus auratus, 72 h, three days of incubation, read-out: IC50 ng/ml approx.
Method: as §1
It has been done two kinds of cytotoxicity assays, one of them employing the same screening protocols and another one with the MTT method. In both cases the cells were: CV-1 (monkey kidney fribroblast) BHK (hamster kidney fibroblast)
BHK cells were seeded into 16 mm wells at 2 x 10⁴ per well. The day after the inoculum was replaced by 1 ml aliquots of MEM 10FCS containing the indicated concentration of drug. All determinations were carried out in duplicate. After three days of incubation cells were counted and the IC₅₀ was determined.

[1] = test system: VSV (vesicular stomatitis virus); assay type: cell-based; conditions: VSV in BHK cells
murine lymphocytes = test: Mixed Lymphocyte Reaction (MLR) assay; assay type: cell-based, mice; conditions: Mus musculus, two-way MLR, Balb/c and C57B1/6 lymphocytes, 96 hours, 3H-thymidine
Method: (§2) Murine lymphocytes were derived by splenectomy, under sterile conditions, from Balb/c and C57B1/6 mice sacrificed by cervical dislocation. Spleens were homogenized in 15 mM RPMI medium […], 87%; fetal calf serum, 10%; L-glutamine (200 mM), 2% and supplemented with 1% antibiotic-antimycotic solution (GIBCO) and 25 µg/ml gentamycin. Red blood cells were lysed by brief exposure to sterile, distilled water and subsequently reconstituted to normal tonicity with PBS (10x). The final cell preparation was enumerated, and the viability evaluated, by means of a hemacytometer using the trypan blue exclusion method.
The MLR is an in vitro test of cellular immunity in which murine lymphocytes from genetically dissimilar animals are cocultured to mutually induce cell proliferation (i.e. two-way MLR method). […] Data from the MLR is generated as dpm of radioactivity which is then expressed as a percentage of cellular activity, relative to control, using the following reduced formula: (Experimental value - (Balb/c - C57B1/6 - Media))/(Positive Control - (Balb/c - C57B1/6 - Media))x 100 [formula] […]
Reconstituted compound at each of several concentrations was added in duplicate (10µl) into wells of a 96-well microtiter plate and evaporated to dryness at room temperature. […] The radioactivity from DNA-bound 3H thymidine was counted using a dry INOTECH counter. Results were calculated as described above.

Balb/c lymphocytes = test: Lymphocyte Viability (LCV) assay, MTT; assay type: cell-based, mice; conditions: Mus musculus, 96 hours, 50% viability
Method: as §2
The LCV is an in vitro cytotoxicity assay for murine lymphocytes designed by the investigator. […] The percent viable cells is determined by the MTT-thiazolyl blue method after a similar incubation in the MLR of lymphocytes with the test sample. […] If there is no significant reduction in cell viability, as determined by this detection method, then damaged cells are probably not present for low data values generated in the MLR. Colorimetric data from the LeV is calculated as a percentage of viability, relative to control, using the following formula: (Experimental value - (Nonspecific Color))/(Positive Control - (Media))x 100 [formula] […]

For CC(/C=C/C(C)=C/C1Cc2nc(cs2)C(C)CC(N)CC(=O)OC(C)C/C(C)=C/C=C\C(=O)O1)=C\CN(C)C (centres unmarked) [PATEAMINE, pateamine], the “% Inhibition P-388 cell growth” value (P-388 cells; 0.1ng, three days of incubation) was 11%, the “% Inhibition P-388 cell growth” value (P-388 cells; 1ng, three days of incubation) was 100% and the “% Inhibition P-388 cell growth” value (P-388 cells; 5ng, three days of incubation) was 100%. For the same molecule, the “% Inhibition P-388 cell growth” value (P-388 cells; 10ng, three days of incubation) was 100%, the IC50 (P-388 cells; P388, 72 h, P-388, three days of incubation, read-out: IC50 ng/ml approx.) was ~0.3 ng/mL (≈ 0.54 nM) and the IC50 (P-388 cells; P388, read-out: IC50) was 0.15 ng/mL (≈ 0.27 nM). The IC50 (BHK cells) was ~3 ng/mL (≈ 5.4 nM), the IC50 ng/disk [1] was >10 ng/disk and the “% Inhibition BHK/VSV (sign for plaque reduction)” value ([1]; 10ng) was 14 - (The sign (-), indicates no inhibition of virus replication.). The IC50 (murine lymphocytes) was < 1.5 ng/mL and the IC50 (Balb/c lymphocytes) was 4100 ng/mL (≈ 7380 nM).
